Broadly, the % Inhibition is the drop in the measured response relative to a control, in per cent. Higher therefore signals strong suppression.

Results on four molecules are retold here after patent publication US20090137612A1, “Treatment with combined use of oxypurines and ascorbate to prevent and mitigate iron-catalized oxidative damage in Alzheimer's disease and other neurodegenerative disorders” (priority 2007, published 2009).

Data set [1] deals with human hemoglobin (Homo sapiens, UniProt P68871+P69905). In words: Inhibition of o-dianisidine oxidation by human hemoglobin in reaction with hydrogen peroxide (colorimetric, 460 nm). The class given is biochemical. Particulars: hemoglobin 12 mg/dl, 20 micromolar H2O2. The method, then:
(§1) All chemicals used in the following first 4 EXAMPLES for this invention were of analytical quality. A colorimeter was used to detect peroxidations of o-dianisidine, 9 mg/dL, as chromogenic hydrogen donor when oxidized, with its absorbance measured at 460 nm in saline solutions (140 mM NaCl, buffered by 3 mM phosphate salts at pH 7.4). Ferrous sulfate or human hemoglobin was added to control and to test solutions containing uric acid or ascorbic acid shortly before the addition of hydrogen peroxide, with oxidized molecules of dianisidine measured promptly. The saline solutions were mimetic of cerebrospinal fluid except devoid of possible confounding other molecules.
Uric Acid Inhibition of Substrate Oxidation by Human Hemoglobin Level of 12 mg/dl in Reaction with 20 Micromolar Hydrogen Peroxide
Ascorbic Acid Inhibition at 1.6 mg/dl of Substrate Oxidation Induced by Human Hemoglobin Level of 12 mg//dl in Reaction with 20 Micromolar Hydrogen Peroxide
Comments: The inhibition remained virtually complete in EXAMPLE 4 at 10 minutes of continued exposure to the hydrogen peroxide, in spite of greater absorbance increase or oxidation in the control solutions from continuing reaction of the peroxide with the iron that resided in the hemoglobin. […] He used higher concentrations of hemoglobin and hydrogen peroxide (e.g. 0.67 or 0.8 mM of hydrogen peroxide) in phosphate-saline buffer with 2 hour incubations at 37° C.

The conditions of data set [2]: known in the art, in words; cited from earlier work.
Data set [3] can be described thus: Inhibition of o-dianisidine oxidation induced by reaction of ferrous sulfate with hydrogen peroxide (colorimetric, 460 nm). The class given is biochemical. The protocol:
as §1
Uric Acid Inhibition of Substrate Oxidations Induced by Reaction of Ferrous Sulfate (9.8 Micromolar) with 20 Micromolar Hydrogen Peroxide
Comment: All incubations were done at 25-28° Celsius.
Ascorbic Acid Inhibition at 1.6 mg/dl of Substrate Oxidation Induced by Reaction of Ferrous Sulfate (9.8 Micromolar) with 20 Micromolar Hydrogen Peroxide

The conditions of data set [4]: cited from earlier work; for elevating human serum uric acid levels when given orally: humans (normal adults and gouty individuals), literature.
For data set [5] the following is noted: intravenously, healthy humans; Chamorro A et al., 2004; cited from earlier work.
The mark [6] stands for this setting: Urate 0.5 mg/dL, 5 min. after H2O2, n 4.
Where [7] appears, read: Urate 0.5 mg/dL, 10 min. after H2O2, n 4.
Where [8] appears, read: Urate 6.0 mg/dL, 10 min. after H2O2, n 4.
The mark [9] stands for this setting: Ascorbate 1.6 mg/dL, 5 min. after H2O2, n = 4.
Setting [10] is: Ascorbate 1.6 mg/dL, 10 min. after H2O2, n = 4.

Sequence of human hemoglobin (P69905 2-142 limits assumed): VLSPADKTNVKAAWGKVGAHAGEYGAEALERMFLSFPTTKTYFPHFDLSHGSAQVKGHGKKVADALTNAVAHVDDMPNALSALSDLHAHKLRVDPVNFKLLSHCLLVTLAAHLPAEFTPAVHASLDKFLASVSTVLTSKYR
Sequence of human hemoglobin (P68871 2-147 limits assumed): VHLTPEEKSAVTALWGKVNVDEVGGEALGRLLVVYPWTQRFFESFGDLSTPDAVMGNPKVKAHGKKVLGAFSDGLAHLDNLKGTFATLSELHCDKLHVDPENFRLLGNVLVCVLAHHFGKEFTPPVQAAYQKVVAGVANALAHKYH

Regarding `O=c1[nH]c(=O)c2[nH]c(=O)[nH]c2[nH]1` [Urate, 2,6,8-oxypurine], the “% Inhibition” value in data set [1] (setting [6]) is 50.7 ± 7.56 %; in data set [1] (setting [7]), 38.8 ± 3.25 %; in data set [1] (Urate 6.0 mg/dL, 5 min. after H2O2, n 4) it was 90.6 ± 0.90 %; in data set [1] (setting [8]), 80.3 ± 3.54 %; in data set [3] (Urate 0.5 mg/dL, 5 min. after H2O2, mean ± s.e.m., n 5), 36.8 ± 5.3 %; in data set [3] (Urate 0.5 mg/dL, 10 min. after H2O2, mean ± s.e.m., n 5), 26.5 ± 5.5 %. Besides, the “% Inhibition” value in data set [3] (Urate 6.0 mg/dL, 5 min. after H2O2, mean ± s.e.m., n 5) was found to be 75.3 ± 4.8 %; in data set [3] (Urate 6.0 mg/dL, 10 min. after H2O2, mean ± s.e.m., n 5), 70.9 ± 4.5 %. Moreover, the “Absorbance Increase” value in data set [1] (setting [6]) is on record as 0.028 ± 0.004; in data set [1] (setting [7]), 0.052 ± 0.009; in data set [1] (Urate 6.0 mg/dL, 5 min. after H2O2, mean ± s.e.m., n 4), 0.006 ± 0.002; in data set [1] (setting [8]), 0.016 ± 0.005; in data set [3] (Urate 0.5 mg/dL, 5 min. after H2O2, 460 nm, mean ± s.e.m., n 5) it was 0.030 ± 0.003; in data set [3] (Urate 0.5 mg/dL, 10 min. after H2O2, 460 nm, mean ± s.e.m., n 5), 0.034 ± 0.017. In addition, the “Absorbance Increase” value in data set [3] (Urate 6.0 mg/dL, 5 min. after H2O2, 460 nm, pH 7.4 saline, 25-28° Celsius, mean ± s.e.m., n 5) is on record as 0.012 ± 0.003; in data set [3] (Urate 6.0 mg/dL, 10 min. after H2O2, 460 nm, mean ± s.e.m., n 5), 0.014 ± 0.003. Further, the solubility in water entry in data set [2] is “difficulty soluble in water”. For the same molecule, in data set [4], the “elevating human serum uric acid levels when given orally” value (shortened to “elevating human serum uric acid levels”) was “ineffective”. The “tolerability of intravenous administration” value in data set [5] is on record as “without untoward effects”.

Take `O=c1[nH]cnc2nc[nH]c12` [hypoxanthine]: the solubility in water result in data set [2] was “more soluble in water”. In addition, in data set [4] (about 0.9 gram given orally (0.1 mmole/kg), persons of near 70 kg, Clifford A J et al., 1976), the “raise of serum or plasma uric acid level” value is given as “about 2.4 mg/dL”. The “elevating human serum uric acid levels” value in data set [4] is listed as “effectively raise serum uric acid levels”.

`O=c1[nH]c(=O)c2[nH]cnc2[nH]1` [xanthine]: the solubility in water entry in data set [2] is “difficulty soluble in water”. For the same molecule, the “elevating human serum uric acid levels” value in data set [4] was “not”.

Turning to `O=C1O[C@H]([C@@H](O)CO)C(O)=C1O` [Ascorbate, L-ascorbic acid], the “% Inhibition” value in data set [1] (setting [9]) is recorded as 100.0 ± 0.0 %; in data set [1] (setting [10]), 99.8 ± 1.2 %; in data set [3] (setting [9]) it was 100.0 ± 0.0 %; in data set [3] (setting [10]) it was 100.0 ± 0.0 %. Also, the “Absorbance Increase” value is 0.000 ± 0.000 in data set [1] (setting [9]); 0.001 ± 0.008 in data set [1] (setting [10]); 0.000 ± 0.000 in data set [3] (Ascorbate 1.6 mg/dL, 5 min. after H2O2, mean ± s.e.m., n = 4); 0.000 ± 0.000 in data set [3] (setting [10]).
